Values after ≈ are worked out from the molar mass of the structure shown.
Tests used:
[1] = system: MRSA 33591; test: MIC, MRSA 33591; assay type: cell-based, Staphylococcus aureus; settings: for MRSA 33591 (microbiological data): Table 6, related compounds of US 6878691; for MIC: Staphylococcus aureus, MRSA, Table 5
Experimental: (§1) Susceptibility tests can be used to quantitatively measure the in vitro activity of an antimicrobial agent against a given bacterial isolate. Compounds are tested for in vitro antibacterial activity by a micro-dilution method. Minimal Inhibitory Concentration (MIC) is determined in 96 well microtiter plates utilizing the appropriate broth medium for the observed bacterial isolates. Antimicrobial agents are serially diluted (2-fold) in DMSO to produce a concentration range from about 64 μg/ml to about 0.03 μg/ml. The diluted compounds (2 μl/well) are then transferred into sterile, uninoculated medium (0.2 mL) by use of a 96 fixed tip-pipetting station. The inoculum for each bacterial strain is standardized to approximately 5×10^5 CFU/mL by optical comparison to a 0.5 McFarland turbidity standard. The plates are inoculated with 10 μl/well of adjusted bacterial inoculum. The 96 well plates are covered and incubated at 35±2° C. for 24 hours in ambient air environment. Following incubation, plate wells are visually examined by Optical Density measurement for the presence of growth (turbidity). The lowest concentration of an antimicrobial agent at which no visible growth occurs is defined as the MIC.
(§2) All in vitro testing follows the guidelines described in the Approved Standards M7-A7 protocol, published by the Clinical Laboratory Standards Institute (CLSI).

[2] = system: H influenzae 33929; test: MIC, H influenzae 33929; assay type: cell-based, Haemophilus influenzae; settings: for H. influenzae 33929 (microbiological data): Table 6, related compounds of US 6878691; for MIC: Haemophilus influenzae, 33929, Table 5
Experimental: as §1, §2

[3] = system: H influenzae 49247; test: MIC, H influenzae 49247; assay type: cell-based, Haemophilus influenzae; settings: for H. influenzae 49247 (microbiological data): Table 6, related compounds of US 6878691; for MIC: Haemophilus influenzae, 49247, Table 5
Experimental: as §1, §2

[4] = system: H. influenzae 1435; test: MIC, H. influenzae 1435; assay type: cell-based, Haemophilus influenzae; design: unit not given beside the values
Experimental: as §1, §2

[5] = system: H. influenzae 3643; test: Rat lung infection model (RLI), H. influenzae 3643; assay type: in vivo; settings: Haemophilus influenzae, read-out: ED50 (2Log Red for RLI)
[6] = system: S. aureus Smith; test: Systemic mouse protection model (MPT), S. aureus Smith; assay type: in vivo; settings: Staphylococcus aureus, MPT
[7] = system: S. pneumoniae 7701; test: MIC, S. pneumoniae 7701; assay type: cell-based
Experimental: as §1, §2

[8] = system: H. influenzae 3643; test: MIC, H. influenzae 3643; assay type: cell-based, Haemophilus influenzae; design: unit not given beside the values
Experimental: as §1, §2

[9] = system: H. influenzae S1280; test: MIC, H. influenzae S1280; assay type: cell-based, Haemophilus influenzae; design: unit not given beside the values
Experimental: as §1, §2

[10] = system: H. influenzae 1435; test: Rat lung infection model (RLI), H. influenzae 1435; assay type: in vivo; settings: Haemophilus influenzae, read-out: ED50 (2Log Red for RLI)
[11] = system: H. influenzae S1280; test: Rat lung infection model (RLI), H. influenzae S1280; assay type: in vivo; settings: Haemophilus influenzae, read-out: ED50 (2Log Red for RLI)
[12] = system: S. aureus Smith; test: MIC, S. aureus Smith; assay type: cell-based, Staphylococcus aureus; settings: table of animal models of infection
Experimental: as §1, §2

[13] = system: S. pneumoniae 7701; test: Mouse protection test model (MPT), S. pneumoniae 7701; assay type: in vivo; settings: Streptococcus pneumoniae
[14] = system: MRSA 7662; test: MIC, MRSA 7662; assay type: cell-based; settings: Staphylococcus aureus, Table 5, read-out: MIC MRSA 7662
Experimental: as §1, §2

| Compound | MRSA 33591 (microbiological data) [1] | H. influenzae 33929 (microbiological data) [2] | H. influenzae 49247 (microbiological data) [3] | also measured |
| --- | --- | --- | --- | --- |
| CCC1OC(=O)C(C)C(=O)C(C)C(OC2OC(C)CC(N(C)C)C2O)C2(C)CC(C)C(=NC(C)=O)C(C)C(OCC(=NOCc3ccc(-c4nnc(N)s4)nc3)CO2)C1(C)O (stereo not drawn) [Example 234 in US 6878691] | >64 | 4 | 4 | – |
| CC[C@H]1OC(=O)[C@H](C)C(=O)[C@H](C)[C@@H](O[C@@H]2O[C@H](C)C[C@H](N(C)C)[C@H]2O)[C@](C)(OC)C[C@@H](C)C(=O)[C@H](C)[C@H]2N(CCCCn3cnc(-c4cccnc4)c3)C(=O)O[C@]12C [Telithromycin, reference compound] | – | – | – | MIC [4]: 2; ED50 [5]: 78 mg/kg; ED50 [6]: 11 mg/kg; MIC [7]: 0.25; MIC [8]: 4; MIC [9]: 2; ED50 [10]: 49 mg/kg; ED50 [11]: 56 mg/kg; MIC [12]: 0.13; ED50 [13]: 10 mg/kg |
| CCC1OC(=O)C(C)(F)C(=O)C(C)C(OC2OC(C)CC(N(C)C)C2O)C2(C)CC(C)C(=NC(C)=O)C(C)C(OCC(=NOCc3ccc(-n4cccn4)nc3)CO2)C1(C)O (stereo not drawn) [Example 214 in US 6878691] | 64 | 4 | 8 | – |
| CCC1OC(=O)C(C)C(=O)C(C)C(OC2OC(C)CC(N(C)C)C2O)C2(C)CC(C)C(=NC(C)=O)C(C)C(OCC(=NOCc3cnc(-n4cccn4)c(F)c3)CO2)C1(C)O (stereo not drawn) [Example 259 in US 6878691] | >64 | 8 | 4 | – |
| CCC(=O)/N=C1\[C@H](C)C[C@@]2(C)OC/C(=N/OCc3csc(-c4cccc(N)n4)n3)CO[C@H]([C@H]1C)[C@](C)(O)[C@@H](CC)OC(=O)[C@@](C)(F)C(=O)[C@H](C)[C@H]2O[C@@H]1O[C@H](C)C[C@H](N(C)C)[C@H]1O [Compound 3] | – | – | – | MIC [1]: 2 µg/mL (≈ 2.21 µM); MIC [2]: 4 µg/mL (≈ 4.42 µM); MIC [3]: 1 µg/mL (≈ 1.1 µM); MIC [14]: 1 µg/mL (≈ 1.1 µM) |
| CCC1OC(=O)C(C)(F)C(=O)C(C)C(OC2OC(C)CC(N(C)C)C2O)C2(C)CC(C)C(=NC(C)=O)C(C)C(OCC(=NOCc3ccc(-c4cccc(N)n4)s3)CO2)C1(C)O (stereo not drawn) [Example 173 in US 6878691] | 4 | 4 | 4 | – |
| CCNC(=O)c1cccc(-c2cc(CON=C3COC4C(C)C(=NC(C)=O)C(C)CC(C)(OC3)C(OC3OC(C)CC(N(C)C)C3O)C(C)C(=O)C(C)C(=O)OC(CC)C4(C)O)on2)n1 (stereo not drawn) [Example 195 in US 6878691] | >64 | 32 | 32 | – |
| CC[C@H]1OC(=O)[C@H](C)C(=O)[C@H](C)[C@@H](O[C@@H]2O[C@H](C)C[C@H](N(C)C)[C@H]2O)[C@@]2(C)C[C@@H](C)C(=O)[C@H](C)[C@@H](OC/C(=N\OCc3ccc(-c4nc(N)ns4)cn3)CO2)[C@]1(C)O [Compound 2] | – | – | – | MIC [2]: 2 µg/mL (≈ 2.4 µM); MIC [3]: 1 µg/mL (≈ 1.2 µM) |
| CCC1OC(=O)C(C)(F)C(=O)C(C)C(OC2OC(C)CC(N(C)C)C2O)C2(C)CC(C)C(=NC(C)=O)C(C)C(OCC(=NOCc3ccc(-c4csnn4)cc3)CO2)C1(C)O (stereo not drawn) [Example 219 in US 6878691] | 32 | 4 | 4 | – |
| CCC1OC(=O)C(C)C(=O)C(C)C(OC2OC(C)CC(N(C)C)C2O)C2(C)CC(C)C(=NC(C)=O)C(C)C(OCC(=NOCc3ccc(-c4ccccn4)s3)CO2)C1(C)O (stereo not drawn) [Example 115 in US 6878691] | >64 | 16 | 16 | – |
| CCC1OC(=O)C(C)C(=O)C(C)C(OC2OC(C)CC(N(C)C)C2O)C2(C)CC(C)C(=NC(C)=O)C(C)C(OCC(=NOCc3ccc(-c4cccc(N)n4)nc3)CO2)C1(C)O (stereo not drawn) [Example 227 in US 6878691] | 32 | 4 | 4 | – |
| CCC1OC(=O)C(C)C(=O)C(C)C(OC2OC(C)CC(N(C)C)C2O)C2(C)CC(C)C(=NC(C)=O)C(C)C(OCC(=NOCc3ccc(-c4cccnc4)s3)CO2)C1(C)O (stereo not drawn) [Example 66 in US 6878691] | >64 | 16 | 16 | – |
| CCC1OC(=O)C(C)(F)C(=O)C(C)C(OC2OC(C)CC(N(C)C)C2O)C2(C)CC(C)C(=NC(C)=O)C(C)C(OCC(=NOCc3ccc(-c4ncccn4)s3)CO2)C1(C)O (stereo not drawn) [Example 140 in US 6878691] | 16 | 8 | 8 | – |
| CCC1OC(=O)C(C)C(=O)C(C)C(OC2OC(C)CC(N(C)C)C2O)C2(C)CC(C)C(=NC(C)=O)C(C)C(OCC(=NOCc3ccc(-c4nccs4)nc3)CO2)C1(C)O (stereo not drawn) [Example 212 in US 6878691] | 64 | 4 | 8 | – |
| CCC1OC(=O)C(C)C(=O)C(C)C(OC2OC(C)CC(N(C)C)C2O)C2(C)CC(C)C(=NC(C)=O)C(C)C(OCC(=NOCc3noc(-c4ccccc4)n3)CO2)C1(C)O (stereo not drawn) [Example 106 in US 6878691] | >64 | 8 | 8 | – |
| CCC1OC(=O)C(C)(F)C(=O)C(C)C(OC2OC(C)CC(N(C)C)C2O)C2(C)CC(C)C(=NC(C)=O)C(C)C(OCC(=NOCc3ccc(-c4cnccn4)s3)CO2)C1(C)O (stereo not drawn) [Example 141 in US 6878691] | 32 | 8 | 8 | – |
| CCC1OC(=O)C(C)C(=O)C(C)C(OC2OC(C)CC(N(C)C)C2O)C2(C)CC(C)C(=NC(C)=O)C(C)C(OCC(=NOCc3ccc(-c4cccs4)nc3)CO2)C1(C)O (stereo not drawn) [Example 205 in US 6878691] | >64 | 4 | 8 | – |
| CCC(=O)/N=C1\[C@H](C)C[C@@]2(C)OC/C(=N/OCc3coc(-c4cccc(N)n4)n3)CO[C@H]([C@H]1C)[C@](C)(O)[C@@H](CC)OC(=O)[C@@](C)(F)C(=O)[C@H](C)[C@H]2O[C@@H]1O[C@H](C)C[C@H](N(C)C)[C@H]1O [Compound 11] | – | – | – | MIC [1]: 4 µg/mL (≈ 4.5 µM); MIC [14]: 2 µg/mL (≈ 2.25 µM) |
| CCC1OC(=O)C(C)C(=O)C(C)C(OC2OC(C)CC(N(C)C)C2O)C2(C)CC(C)C(=NC(C)=O)C(C)C(OCC(=NOCc3ccc(-n4cncn4)cc3)CO2)C1(C)O (stereo not drawn) [Example 91 in US 6878691] | >64 | 16 | 8 | – |
| CCC1OC(=O)C(C)C(=O)C(C)C(OC2OC(C)CC(N(C)C)C2O)C2(C)CC(C)C(=NC(C)=O)C(C)C(OCC(=NOCc3ccc(-c4ncccn4)cc3)CO2)C1(C)O (stereo not drawn) [Example 193 in US 6878691] | 64 | 8 | 8 | – |
| CCC1OC(=O)C(C)C(=O)C(C)C(OC2OC(C)CC(N(C)C)C2O)C2(C)CC(C)C(=NC(C)=O)C(C)C(OCC(=NOCc3ccc(-c4csnn4)cc3)CO2)C1(C)O (stereo not drawn) [Example 72 in US 6878691] | >64 | 8 | 8 | – |
| CCC1OC(=O)C(C)C(=O)C(C)C(OC2OC(C)CC(N(C)C)C2O)C2(C)CC(C)C(=NC(C)=O)C(C)C(OCC(=NOCc3cc(-c4cccnc4)no3)CO2)C1(C)O (stereo not drawn) [Example 69 in US 6878691] | >64 | 16 | 16 | – |
